Measurements reported in ChEMBL document CHEMBL3991601, “The target landscape of clinical kinase drugs” (Science, 2017).
Active and inactive are the calls of the source.

Assays:
Ephrin type-B receptor 6 = target: T1, Ephrin type-B receptor 6 (Homo sapiens, UniProt O15197)
T1 sequence (O15197 whole entry): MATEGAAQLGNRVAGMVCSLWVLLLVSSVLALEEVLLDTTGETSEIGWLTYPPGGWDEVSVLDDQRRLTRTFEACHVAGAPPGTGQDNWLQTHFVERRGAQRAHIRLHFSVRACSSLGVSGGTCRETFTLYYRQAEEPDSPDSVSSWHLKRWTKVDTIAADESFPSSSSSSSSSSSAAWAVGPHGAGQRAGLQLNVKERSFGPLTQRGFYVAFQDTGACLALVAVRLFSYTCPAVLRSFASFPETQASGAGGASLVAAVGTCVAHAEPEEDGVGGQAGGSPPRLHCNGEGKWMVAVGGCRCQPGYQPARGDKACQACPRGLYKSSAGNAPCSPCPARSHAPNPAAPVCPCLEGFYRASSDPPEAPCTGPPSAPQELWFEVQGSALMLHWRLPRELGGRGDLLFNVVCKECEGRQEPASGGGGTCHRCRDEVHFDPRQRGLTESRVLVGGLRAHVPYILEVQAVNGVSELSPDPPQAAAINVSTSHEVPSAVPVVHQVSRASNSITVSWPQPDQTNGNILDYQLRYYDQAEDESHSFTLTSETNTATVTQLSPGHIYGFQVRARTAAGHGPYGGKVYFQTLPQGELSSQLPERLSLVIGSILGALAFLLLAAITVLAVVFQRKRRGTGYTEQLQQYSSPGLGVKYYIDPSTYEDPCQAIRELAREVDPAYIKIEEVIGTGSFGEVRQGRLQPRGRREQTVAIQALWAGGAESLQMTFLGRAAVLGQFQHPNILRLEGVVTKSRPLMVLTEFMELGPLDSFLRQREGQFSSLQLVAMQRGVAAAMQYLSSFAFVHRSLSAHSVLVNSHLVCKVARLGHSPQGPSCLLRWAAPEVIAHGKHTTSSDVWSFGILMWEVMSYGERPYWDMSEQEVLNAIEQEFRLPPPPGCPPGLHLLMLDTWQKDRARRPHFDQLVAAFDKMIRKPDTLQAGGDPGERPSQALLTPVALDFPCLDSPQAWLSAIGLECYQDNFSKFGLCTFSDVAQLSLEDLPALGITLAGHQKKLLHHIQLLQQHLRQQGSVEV

[1] = target: Tyrosine-protein kinase SYK (Homo sapiens, UniProt P43405)
[2] = target: DnaJ homolog subfamily A member 1 (Homo sapiens, UniProt P31689)
Sequence of DnaJ homolog subfamily A member 1 (P31689 whole entry): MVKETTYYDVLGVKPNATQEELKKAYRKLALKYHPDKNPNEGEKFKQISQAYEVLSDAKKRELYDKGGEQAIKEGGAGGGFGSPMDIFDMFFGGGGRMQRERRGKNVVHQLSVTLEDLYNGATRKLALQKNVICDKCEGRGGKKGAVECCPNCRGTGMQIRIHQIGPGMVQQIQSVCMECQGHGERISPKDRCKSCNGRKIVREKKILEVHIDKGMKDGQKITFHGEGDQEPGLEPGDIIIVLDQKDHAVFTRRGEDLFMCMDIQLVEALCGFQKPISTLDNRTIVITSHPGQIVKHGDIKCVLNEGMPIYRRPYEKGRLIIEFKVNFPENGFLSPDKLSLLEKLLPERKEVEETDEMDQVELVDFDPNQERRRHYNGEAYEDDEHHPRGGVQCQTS

[3] = target: cAMP-dependent protein kinase type II-alpha regulatory subunit (Homo sapiens, UniProt P13861)
Sequence of cAMP-dependent protein kinase type II-alpha regulatory subunit (P13861 whole entry): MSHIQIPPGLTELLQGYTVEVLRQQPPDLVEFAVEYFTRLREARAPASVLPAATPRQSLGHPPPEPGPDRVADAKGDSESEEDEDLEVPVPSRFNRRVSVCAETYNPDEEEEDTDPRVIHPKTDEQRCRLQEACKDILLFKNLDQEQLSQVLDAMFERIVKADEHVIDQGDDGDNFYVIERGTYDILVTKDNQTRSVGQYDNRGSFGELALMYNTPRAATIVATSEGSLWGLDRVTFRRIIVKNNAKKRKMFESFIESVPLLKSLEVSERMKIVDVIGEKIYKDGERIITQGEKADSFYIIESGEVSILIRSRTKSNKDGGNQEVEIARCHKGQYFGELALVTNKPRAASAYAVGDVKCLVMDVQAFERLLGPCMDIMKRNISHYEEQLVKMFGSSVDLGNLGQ

[4] = target: 26S proteasome regulatory subunit 6B (Homo sapiens, UniProt P43686)
Sequence of 26S proteasome regulatory subunit 6B (P43686 whole entry): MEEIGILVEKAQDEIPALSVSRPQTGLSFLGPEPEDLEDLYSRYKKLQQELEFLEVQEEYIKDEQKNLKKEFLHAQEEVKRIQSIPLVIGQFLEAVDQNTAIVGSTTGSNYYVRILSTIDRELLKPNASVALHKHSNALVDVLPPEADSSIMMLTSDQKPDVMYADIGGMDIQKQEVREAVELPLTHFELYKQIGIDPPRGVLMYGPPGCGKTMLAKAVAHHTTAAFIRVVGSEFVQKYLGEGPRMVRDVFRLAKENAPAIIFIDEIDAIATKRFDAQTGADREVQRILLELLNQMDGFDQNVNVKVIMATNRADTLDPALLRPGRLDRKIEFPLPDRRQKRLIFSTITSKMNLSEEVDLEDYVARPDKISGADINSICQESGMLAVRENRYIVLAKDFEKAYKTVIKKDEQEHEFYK

[5] = target: Serine/threonine-protein kinase/endoribonuclease IRE2 (Homo sapiens, UniProt Q76MJ5)
Sequence of Serine/threonine-protein kinase/endoribonuclease IRE2 (Q76MJ5 whole entry): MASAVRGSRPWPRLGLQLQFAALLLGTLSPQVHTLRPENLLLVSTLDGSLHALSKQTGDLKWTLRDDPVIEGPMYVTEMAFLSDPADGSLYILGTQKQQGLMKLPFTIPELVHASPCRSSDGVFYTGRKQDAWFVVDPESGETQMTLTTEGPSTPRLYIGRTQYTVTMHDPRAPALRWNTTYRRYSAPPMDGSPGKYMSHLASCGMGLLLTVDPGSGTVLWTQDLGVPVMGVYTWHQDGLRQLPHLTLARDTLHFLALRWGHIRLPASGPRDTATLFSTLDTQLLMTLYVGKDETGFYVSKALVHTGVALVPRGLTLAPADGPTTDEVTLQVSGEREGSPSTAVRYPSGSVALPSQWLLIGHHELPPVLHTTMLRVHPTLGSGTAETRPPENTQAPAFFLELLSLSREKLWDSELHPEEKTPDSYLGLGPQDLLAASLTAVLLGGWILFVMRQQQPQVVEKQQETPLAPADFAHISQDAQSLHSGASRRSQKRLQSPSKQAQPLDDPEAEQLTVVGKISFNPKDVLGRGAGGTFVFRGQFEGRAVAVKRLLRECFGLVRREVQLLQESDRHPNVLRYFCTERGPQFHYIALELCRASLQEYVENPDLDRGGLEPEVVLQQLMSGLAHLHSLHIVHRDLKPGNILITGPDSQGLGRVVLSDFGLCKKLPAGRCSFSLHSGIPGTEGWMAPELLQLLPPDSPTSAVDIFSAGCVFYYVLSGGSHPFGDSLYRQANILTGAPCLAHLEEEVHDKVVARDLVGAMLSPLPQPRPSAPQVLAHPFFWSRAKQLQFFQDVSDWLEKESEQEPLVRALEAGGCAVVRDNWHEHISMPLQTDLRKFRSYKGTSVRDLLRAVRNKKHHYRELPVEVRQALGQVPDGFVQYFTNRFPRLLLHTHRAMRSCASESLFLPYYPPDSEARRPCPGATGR

[6] = target: T2, Serine/threonine-protein kinase Chk1 (Homo sapiens, UniProt O14757)
T2 sequence (O14757 whole entry): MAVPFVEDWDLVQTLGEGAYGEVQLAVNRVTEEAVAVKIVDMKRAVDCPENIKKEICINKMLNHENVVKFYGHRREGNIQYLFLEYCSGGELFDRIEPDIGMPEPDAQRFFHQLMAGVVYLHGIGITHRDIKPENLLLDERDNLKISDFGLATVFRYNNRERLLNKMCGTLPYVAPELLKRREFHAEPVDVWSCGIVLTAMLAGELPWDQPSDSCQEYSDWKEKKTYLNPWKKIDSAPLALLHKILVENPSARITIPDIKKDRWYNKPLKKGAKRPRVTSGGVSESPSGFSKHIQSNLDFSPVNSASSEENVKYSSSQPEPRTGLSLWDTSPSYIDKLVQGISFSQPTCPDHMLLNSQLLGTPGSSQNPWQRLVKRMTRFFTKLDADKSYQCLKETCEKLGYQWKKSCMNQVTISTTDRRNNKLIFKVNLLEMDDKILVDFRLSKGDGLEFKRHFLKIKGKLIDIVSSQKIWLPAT
Further: in the data inactive means no Kd found up to 30 µM.

| Compound | Kd (Ephrin type-B receptor 6) | Kd [1] | Kd [2] | Kd [3] | Kd [4] | Kd [5] | Kd [6] |
| --- | --- | --- | --- | --- | --- | --- | --- |
| CC1(COc2ccc3c(c2)ncn3-c2ccc3cccc(N4CCC(N)CC4)c3n2)COC1 [CRENOLANIB] | > 30 µM (inactive) | > 30 µM (inactive) | > 30 µM (inactive) | > 30 µM (inactive) | > 30 µM (inactive) | > 30 µM (inactive) | > 30 µM (inactive) |
| O[C@H]1CC[C@H](Nc2ncc3nc(Nc4c(F)cc(F)cc4F)n([C@H]4CCOC4)c3n2)CC1 [TANZISERTIB] | > 30 µM (inactive) | > 30 µM (inactive) | > 30 µM (inactive) | > 30 µM (inactive) | > 30 µM (inactive) | > 30 µM (inactive) | > 30 µM (inactive) |
| CNC(=O)c1ccc(Nc2ncc(C(F)(F)F)c(NCc3nccnc3N(C)S(C)(=O)=O)n2)cc1 [DEFACTINIB] | > 30 µM (inactive) | > 30 µM (inactive) | > 30 µM (inactive) | > 30 µM (inactive) | > 30 µM (inactive) | > 30 µM (inactive) | > 30 µM (inactive) |
| CCc1nc(C(N)=O)c(Nc2ccc(N3CCC(N4CCN(C)CC4)CC3)c(OC)c2)nc1NC1CCOCC1 [GILTERITINIB] | 0.241 µM | 4.04 µM (active) | > 30 µM (inactive) | > 30 µM (inactive) | > 30 µM (inactive) | > 30 µM (inactive) | > 30 µM (inactive) |
| FC(F)(F)c1ccc(CNc2ccc(Cc3c[nH]c4ncc(Cl)cc34)cn2)cn1 [PEXIDARTINIB] | > 30 µM (inactive) | > 30 µM (inactive) | > 30 µM (inactive) | > 30 µM (inactive) | > 30 µM (inactive) | > 30 µM (inactive) | > 30 µM (inactive) |
| O=c1[nH]c([C@@H]2CCCN2)nc2c1oc1ccc(Cl)cc12 | > 30 µM (inactive) | > 30 µM (inactive) | > 30 µM (inactive) | > 30 µM (inactive) | > 30 µM (inactive) | > 30 µM (inactive) | > 30 µM (inactive) |
| N#CCNC(=O)c1ccc(-c2ccnc(Nc3ccc(N4CCOCC4)cc3)n2)cc1 [MOMELOTINIB] | > 30 µM (inactive) | > 30 µM (inactive) | > 30 µM (inactive) | > 30 µM (inactive) | > 30 µM (inactive) | > 30 µM (inactive) | > 30 µM (inactive) |
| COCCN1CCN(Cc2ccc(-c3n[nH]c4c3C(=O)c3c(NC(=O)NN5CCOCC5)cccc3-4)cc2)CC1 [RGB-286638] | > 30 µM (inactive) | > 30 µM (inactive) | > 30 µM (inactive) | > 30 µM (inactive) | > 30 µM (inactive) | > 30 µM (inactive) | > 30 µM (inactive) |
| CCc1cc2c(cc1N1CCC(N3CCOCC3)CC1)C(C)(C)c1[nH]c3cc(C#N)ccc3c1C2=O [ALECTINIB] | > 30 µM (inactive) | > 30 µM (inactive) | > 30 µM (inactive) | > 30 µM (inactive) | > 30 µM (inactive) | > 30 µM (inactive) | > 30 µM (inactive) |
| O=C(NOC[C@H](O)CO)c1ccc(F)c(F)c1Nc1ccc(I)cc1F [MIRDAMETINIB] | > 30 µM (inactive) | > 30 µM (inactive) | > 30 µM (inactive) | > 30 µM (inactive) | > 30 µM (inactive) | > 30 µM (inactive) | > 30 µM (inactive) |

Next, values leading:

| Kd (Ephrin type-B receptor 6) | Kd [1] | Kd [2] | Kd [3] | Kd [4] | Kd [5] | Kd [6] | Compound |
| --- | --- | --- | --- | --- | --- | --- | --- |
| > 30 µM (inactive) | > 30 µM (inactive) | > 30 µM (inactive) | > 30 µM (inactive) | > 30 µM (inactive) | > 30 µM (inactive) | > 30 µM (inactive) | Cc1cc(-c2cc(OC(=O)c3ccccc3)ccc2Cl)cc2nnc(Nc3ccc(OCCN4CCCC4)cc3)nc12 [TG100-801] |
| > 30 µM (inactive) | > 30 µM (inactive) | > 30 µM (inactive) | > 30 µM (inactive) | > 30 µM (inactive) | > 30 µM (inactive) | > 30 µM (inactive) | CCN1CCN(Cc2ccc(Nc3ncc(F)c(-c4cc(F)c5nc(C)n(C(C)C)c5c4)n3)nc2)CC1 [ABEMACICLIB] |
| > 30 µM (inactive) | > 30 µM (inactive) | > 30 µM (inactive) | > 30 µM (inactive) | > 30 µM (inactive) | > 30 µM (inactive) | > 30 µM (inactive) | Cc1cc(C(=O)Nc2cc(Oc3ccc4nc(NC(=O)C5CC5)cn4n3)ccc2C)n(C)n1 [TAK-593] |
| > 30 µM (inactive) | > 30 µM (inactive) | > 30 µM (inactive) | > 30 µM (inactive) | > 30 µM (inactive) | > 30 µM (inactive) | > 30 µM (inactive) | COc1cccc2cc(-c3nc([C@H]4CC[C@H](C(=O)O)CC4)n4ncnc(N)c34)[nH]c12 [OSI-027] |
| > 30 µM (inactive) | > 30 µM (inactive) | > 30 µM (inactive) | > 30 µM (inactive) | > 30 µM (inactive) | > 30 µM (inactive) | > 30 µM (inactive) | O=S(=O)(c1cccc2c(O)nccc12)N1CCCNCC1 [HYDROXYFASUDIL] |
| > 30 µM (inactive) | > 30 µM (inactive) | > 30 µM (inactive) | > 30 µM (inactive) | > 30 µM (inactive) | > 30 µM (inactive) | > 30 µM (inactive) | Cc1ccc(C(=O)Nc2ccc(Oc3cc4cnn(C)c4cc3-c3cn[nH]c3)c(F)c2)c(=O)n1-c1ccc(F)cc1 [MERESTINIB] |
| > 30 µM (inactive) | > 30 µM (inactive) | > 30 µM (inactive) | > 30 µM (inactive) | > 30 µM (inactive) | > 30 µM (inactive) | > 30 µM (inactive) | c1cc(OCCN2CCCCC2)cc(-c2n[nH]c3ccc(-c4nc[nH]n4)cc23)c1 [CC-401] |
| > 30 µM (inactive) | > 30 µM (inactive) | > 30 µM (inactive) | > 30 µM (inactive) | > 30 µM (inactive) | > 30 µM (inactive) | > 30 µM (inactive) | CCOc1ccn(-c2ccc(F)cc2)c(=O)c1C(=O)Nc1ccc(Oc2ccnc(N)c2Cl)c(F)c1 [BMS-777607] |
| > 30 µM (inactive) | > 30 µM (inactive) | > 30 µM (inactive) | > 30 µM (inactive) | > 30 µM (inactive) | > 30 µM (inactive) | > 30 µM (inactive) | C[C@@H]1COC(Nc2ccc3ncnc(Nc4ccc(OCc5nccs5)c(Cl)c4)c3c2)=N1 [VARLITINIB] |
| > 30 µM (inactive) | > 30 µM (inactive) | > 30 µM (inactive) | > 30 µM (inactive) | > 30 µM (inactive) | > 30 µM (inactive) | > 30 µM (inactive) | COc1cc2nccc(Oc3ccc(NC(=O)C4(C(=O)Nc5ccc(F)cc5)CC4)cc3)c2cc1OC [CABOZANTINIB] |
| > 30 µM (inactive) | > 30 µM (inactive) | > 30 µM (inactive) | > 30 µM (inactive) | > 30 µM (inactive) | > 30 µM (inactive) | > 30 µM (inactive) | CNC(=O)c1cccc(-c2ccc3c(N4CCOC[C@@H]4C)nc(N4CCOC[C@@H]4C)nc3n2)c1 [VISTUSERTIB] |
| > 30 µM (inactive) | > 30 µM (inactive) | > 30 µM (inactive) | > 30 µM (inactive) | > 30 µM (inactive) | > 30 µM (inactive) | > 30 µM (inactive) | S=C(NCc1ccc2c(c1)OCO2)N1CCN(c2ncnc3c2oc2ccccc23)CC1 [AMUVATINIB] |
| > 30 µM (inactive) | > 30 µM (inactive) | > 30 µM (inactive) | > 30 µM (inactive) | > 30 µM (inactive) | > 30 µM (inactive) | > 30 µM (inactive) | COc1ccc(-c2ccc3ncc4c(c3c2)n(-c2ccc(N3CCNCC3)c(C(F)(F)F)c2)c(=O)n4C)cn1 [BGT-226 FREE BASE] |
